melting point [°C]	SMILES
270 to 273	O=C(O)c1cccc(-c2ncn(-c3ccc(N4CCCC4=O)cc3)n2)c1
32 to 33	O=C1C=C(Cc2ccccc2)CC1
97 to 99	CCN(CC)Cc1ccnc(F)c1C=NO
97.6	Clc1ccc(C(Cn2ccnc2)C2CCCC2)c(Cl)c1 (stereo not drawn)
155	Cc1ncc(CN)c(N)n1
207 to 208	CC(C(N)=O)c1ccc2c(c1)C(=O)Cc1ccc(Cl)cc1S2 (stereo not drawn)
190 to 191	CN1CC2C(C1)C2Nc1ncc2cc(-c3ccccc3Cl)c(=O)n(C3CC3)c2n1 (stereo not drawn)
290 to 295	CON=C(c1ccc(F)cc1)c1ccc2[nH]c(NC(=O)OC)nc2c1
185 to 187	COc1ccc(-c2cc(C(=O)O)c(=O)n(CCCc3ccc(F)cc3)n2)cc1F
148 to 151	COC[C@](C#N)(C(=O)OC)[C@H](c1ccccc1OC)c1cccc2ccccc12
270	Cc1ccc2c(n1)C(=O)C(N)=C(Cl)C2=O
57 to 59	CSc1nc(Cl)nc(Cl)n1
142	CN1CCN(C(=O)c2ccc(-c3cc(-c4c[nH]nc4-c4ccccn4)ccn3)cc2)CC1
117 to 118	CCCCCCCCCCCCc1ccc(S(=O)(=O)Nc2nnc(C(C)(C)C)s2)cc1
77	COCc1c(C(C)C)nc(-c2ccc(F)cc2)c(C=O)c1C(C)C
208	CC(=O)OCC(=O)C1C(C)CC2C3CC(Cl)C4=CC(=O)C=CC4(C)C3C(O)CC21C (stereo not drawn)
189 to 190	Cc1nc(N)ccc1NC(=NC#N)Oc1ccccc1
129 to 131	Cc1cc(CON2C(=O)c3ccccc3C2=O)on1
169 to 170	COC(=O)c1ccccc1-n1c(CCl)nc2ccc(C(F)(F)F)cc2c1=O
250	NC(=O)c1cn(-c2ccccn2)nc1-c1ccc([N+](=O)[O-])o1
166 to 167	CC(C)(C)OC(=O)NC1(C(=O)NCC(F)(F)F)CC1
104 to 107	N#Cc1cc(/C=C/C(c2cc(Cl)c(Cl)c(Cl)c2)C(F)(F)F)ccc1-n1cnc(N(C(=O)C2CC2)C(=O)C2CC2)n1 (stereo not drawn)
159 to 160	O=C(c1ccccc1)n1c(=O)c(C(F)(F)F)cn(C2CC(O)C(COCc3ccc(Cl)cc3)O2)c1=O (stereo not drawn)

melting point [°C]	SMILES
202 to 203	Cc1nc(-c2ccc(O)cc2)oc1C
145 to 150	O=C(O)c1cn(C2CC2)c2c(F)c(N3CC(CNC(=O)C(F)(F)F)C3)c(F)cc2c1=O
99 to 101	CCOC(=O)c1ccccc1NC(=O)NCC1(c2ccccc2)CCCCC1
133 to 134	ON=Cc1cc(F)ccc1Cl
97 to 98	CCCCCCCCCCCCCC(=O)N[C@H]1CCCNC(=O)C1
182 to 183	CC(=O)N(O)Cc1ccc2c(c1)Cc1ccccc1-2
60 to 61	CCOCc1nc(C(=O)OCC)c(C(=O)OCC)[nH]1
133	Cc1cc(OCCc2nc(-c3ccccc3)oc2C)ccc1OCC(=O)O
108 to 110	CC(C)(C)c1ccc(CN(O)Cc2ccc(C(C)(C)C)cc2)cc1
198 to 201	CC(C)(C)SCC1Cn2cc(C(=O)NCc3ccc(Cl)cc3)c(=O)c3cc(CN4CCOCC4)cc(c32)O1 (stereo not drawn)
195 to 196	CCCCCCCCOc1ccc(C(=O)NNc2nc(NNC(=O)c3ccc(OCCCCCCCC)cc3O)nc(N(CCC)CCC)n2)c(O)c1
228 to 230	N#Cc1ccc2c(c1)S(=O)(=O)c1ccc(Cl)cc1C=C2
183 to 184	Cc1nc(C)c(Cl)c(CNCc2ccc(Oc3ccc4ncc([N+](=O)[O-])n4n3)cn2)n1
153	O=C(/C=C/c1ccn(S(=O)(=O)c2ccc3ccccc3c2)c1)NO
186 to 189	O=S1(=O)N=C2CCCN2c2ccc(Oc3cccc(-c4ccco4)c3)cc21
282 to 283	Cc1c(-c2ccc(O)cc2O)c(=O)oc2cc(O)ccc12
103 to 109	CCCCCCCCCCCCCCCCCCOc1cn(-c2ccc(OCc3ccccc3)cc2)c(CNCCCN(C)C)cc1=O
52 to 53	C=CCOc1cc(NC(=O)C2CCCCC2C(=O)OCC)c(F)cc1Cl (stereo not drawn)
146	Cc1cc(F)c(NS(=O)(=O)c2ccccc2)cc1NS(=O)(=O)c1ccccc1
206 to 210	COc1cccc(CNC(=O)c2cc3ccccc3c(=O)[nH]2)c1
61 to 66	COC(=O)N(Cc1ccccc1)[C@H]1CC[C@H](c2ccc(O)cc2)CC1
> 280	Cc1c(N)c([N+](=O)[O-])cc2c(=O)c(C(=O)O)cn(-c3cc(N)c(F)cc3F)c12
87 to 88	O=c1c2ccccc2ccc2ccc(SC(F)(F)F)cc12

melting point [°C]	SMILES
165 to 166	CCCn1nc2c(N)nc3ccccc3c2c1CC(C)(C)NC(=O)c1ccc(F)c(F)c1
161 to 162	CSc1ccc(C=C2C(=O)c3ccccc3CC2OCCn2ccnc2)cc1 (stereo not drawn)
208	CC1(C)C=Cc2c(ccc3c2C(=O)C(O)=CC3=O)O1
137 to 138	CO[C@H]1CC[C@H](N(C)C(=S)c2ccc3nonc3c2)CC1
155 to 158	COCOc1cc(F)ccc1-c1cc(-c2cccc(C(=O)OC)c2)c(C#N)c(N)n1
> 250	Fc1ccc(-c2ccc3[nH]c4c(ccc5cc[nH]c54)c3c2)cc1
79 to 81	CN(C)C(=O)c1cnn(-c2ccccc2)c1Br
47	CC(C)CN(CC(C)C)C(=O)c1ccc(F)c([N+](=O)[O-])c1
77 to 78	Clc1ccc(-c2nc(COc3ccc(CCCn4ccnc4)cc3)co2)s1
137 to 139	Cc1scc2c1N(C(=O)N1CCCC(CCCN(C)C)C1)c1ccccc1NC2=O (stereo not drawn)
44 to 46	CCOC(=O)c1cc2n(n1)CCCO2
190 to 193	CC(C)(C)c1ccc(CC2OCCN(Cc3ccccc3)C2=O)cc1 (stereo not drawn)
65 to 68	COC(CNC(=O)c1ccc(N2CCN(C(=O)c3ccccc3C(F)(F)F)CC2)nn1)C(C)(C)C (stereo not drawn)
180	Cc1[nH]c(-c2cccc(C(F)(F)F)c2)nc1C=O
82 to 84	OCCOc1cccc2cccnc12
140 to 142	CC(C)(C)OC(=O)NCCCCC(NC(=O)OCc1ccccc1)C(N)=O (stereo not drawn)
87	CCCCN(C(=O)C(C)C)c1ccc(-c2ccccc2)o1
103 to 105	CC1(C)SCN(C(=O)[C@@H](O)[C@H](Cc2ccccc2)NC(=O)O[C@H]2CCOC2)[C@@H]1C(=O)N[C@H]1CCCc2ccccc21
273	COc1ccccc1-c1nc(N)ncc1-c1ccc(=O)[nH]n1
112 to 113	c1ccc(CCN2CCN(c3nc4cccc5c4n3CCC5)CC2)cc1
138	OCc1cc(N2CCOCC2)ncn1
98 to 102	CCC(CC)Nc1cc(C)nc(Oc2c(C)cc(C)cc2C)c1C(=O)OC

SMILES	melting point [°C]
Clc1cc(N2CCNCC2)ccn1	119 to 120
CC(=O)NNCC1CC2c3cccc4[nH]cc(c34)CC2N(C)C1 (stereo not drawn)	213 to 215
O=c1c2ccc(O)cc2nc(-c2ccc(O)cc2)n1-c1ccc(OCCCl)cc1	285 to 287
O=C(Cc1ccc(Cl)c(Cl)c1)N1CCN2CCCC[C@@H]21	102 to 104
O=C(OCc1ccccc1)c1ncn2c1[C@@H]1CCCN1C(=O)c1c(Cl)cccc1-2	141 to 142
